Reference: BindingDB's records for doi:10.1002/bip.20588 (University of California Davis, 2006)
*1 amine or outer side, *2 acyl side, *3 side chain or, on linkers, in order; H or OH if unused. Where a SMILES comes first, the peptide text is derived from it. [ ]: non-standard residue; d: D form. The star is where a group is joined. ξ: configuration not given here. X1 = O=C(Cc1ccc(N[*:1])cc1)[*:2]; Aad = N[C@@H](CCCC(=O)O)C(=O)O; Ile(3ξ) = CCC(C)[C@H](N)C(=O)O; NH(2-Me-phenyl) = Cc1ccccc1N*; Nle = CCCC[C@H](N)C(=O)O; CO = O=C([*:1])[*:2]

Molecular target: Integrin alpha-4/beta-1 (Homo sapiens, UniProt P05556+P13612, T112H)
Assay: Jurkat Cell Adhesion Inhibition Assay

Row | Structure (SMILES) | IC50 (pH 7.5, 22 °C) [nM] | IC50 [nM]
1 | CCCC[C@H](NC(=O)Cc1ccc(NC(=O)Nc2ccccc2C)cc1)C(=O)N[C@@H](CC(=O)O)C(=O)N[C@H](C(=O)N1CSC[C@@H]1C(N)=O)C(C)CC (stereo partly drawn) [(3S)-3-{[(2S,3S)-1-[(4S)-4-carbamoyl-1,3-thiazolidin-3-yl]-3-methyl-1-oxopentan-2-yl]carbamoyl}-3-[(2S)-2-[1-(4-{[(2-methylphenyl)carbamoyl]amino}phenyl)acetamido]hexanamido]propanoic acid] | 3.2 | –
2 | CCCC[C@H](NC(=O)Cc1ccc(NC(=O)Nc2ccccc2C)cc1)C(=O)N[C@@H](CCCC(=O)O)C(=O)N[C@H](C(=O)N1CCC[C@H]1C(N)=O)C(C)CC (stereo partly drawn) [(5S)-5-{[(2S,3S)-1-[(2S)-2-carbamoylpyrrolidin-1-yl]-3-methyl-1-oxopentan-2-yl]carbamoyl}-5-[(2S)-2-[1-(4-{[(2-methylphenyl)carbamoyl]amino}phenyl)acetamido]hexanamido]pentanoic acid] ({NH(2-Me-phenyl)-CO}-[X1][Nle][Aad][Ile(3ξ)]P-NH2) | – | 3.4
